Assay results as given in patent publication US20130189382A1, “Use of fucoxanthin in the preparation of product for improving memory and having neuroprotective effect associated with neurodegenerative disorder” (Beijing Gingko Group Biological Technology Co., Ltd., priority 2010, published 2013).
Marks after values point to notes of the source that are not given here.

Experiments:
[1] = system: memory acquisition of mice; assay: Step-through test, memory acquisition of mice; format: in vivo; conditions: 0.42 mg/kg·bw for 30 days
Description: (§1) 1.1 Material: pure fucoxanthin prepared by our company, and the recommended daily intake for a mouse is equal to the daily dose 4 mg of the human body, male Kuming mice, 6 to 8 weeks old, bodyweight ranging from 18 to 22 g.
(§2) 1.2 dose and group: take the daily dose, i.e. 4 mg of fucoxanthin of the human body as a dose group, turn the dose into the daily dose of the mice, and set a blank control group.
1.52 Step-through test: the selection of animals, the grouping in the test, the doses for the tested objects, the administration methods and the administration time are the same as those in the step-down test, and step-through training was conducted after administering the samples continuously for 30 days. During the experiment, make the mice face back to the entrance of a bright room and put the mice into the bright room, start a timer, the animals passed through the entrance, entered the […] and received electric shocks, stop the timer, take out the mice and record the time needed for each mouse to be put into the bright room and enter a dark room to receive the electric shocks, i.e. the latency, repeat the test 24 hours later at the same time, and record the latency for each mouse to enter the dark room, the number of errors within 5 minutes, and the number of animals that entered the dark room.
(§3) 1.6 Data processing: process the obtained data by utilizing an SPSS1010 statistic software package and employ analysis of variance and X^2 test in the statistic method. […]

[2] = system: rat brain cortical neurons induced by Aβ25-35; assay: T-AOC in culture medium of neurons damaged by Aβ25-35; format: cell-based
Description: Aβ25-35 and MTT, purchased from Sigma Company; T-AOC assay kit, MDA assay kit, GSH-PX assay kit and SOD assay kit, purchased from Nanjing Jiancheng Bioengineering Institute; and cell apoptosis fluorescent Hoechst33342/PI double staining reagent kit purchased from Nanjing KeyGEN Biotech Co., Ltd. […] Other detection indexes: […] Three experiments of different samples were repeated to detect each index of this experiment (except the Hoechst/PI double staining experiment and the experiment of cell morphological observation), and all results are obtained via the results of three experiments by using statistical analysis. The T-AOC can be measured to evaluate the antioxidant capacity of the total antioxidant substances in the system. […] The protective effect of the Fx-powder is improved with the increase of the drug concentrations. However, A and the Fx-oil are not dose-dependent although they can improve the T-AOC.

[3] = system: memory acquisition of mice; assay: Step-down test, memory acquisition of mice; format: in vivo; conditions: 0.42 mg/kg·bw by lavage for 30 days
Description: as §1, §2
1.51 Step-down test: select 20 male mice with a bodyweight of 18 to 22 g, randomly divide the mice into a blank control group and a medication group, administer fucoxanthin to the medication group by lavage, conduct step-down training to the mice after administering the sample to the mice continuously for 30 days, put the animals in a reaction tank for adaption for 3 minutes, introduce a 36V alternating current, and the normal reaction of the animals was to jump back to the insulated platform quickly. Most of the animals might jump onto the copper grids again or jump onto the copper grids for multiple times, and jump back onto the platform after receiving electric shocks. After training once, the animals were placed on the platform in the reaction tank, record the number of electric shocks (number of errors) received by each mouse within 5 minutes as the learning performance, retest 24 hours later, and record the number of animals that received the electric shocks, the latency for the animals to step down the platform for the first time, and number of errors within 3 minutes.
as §3

[4] = system: rat brain cortical neurons induced by Aβ25-35; assay: Cell survival rate by MTT method in neurons damaged by Aβ25-35; format: cell-based; conditions: control = 100%
Description: 1) kill zero to four-day old neonatal rats, immerse the rats in 75% alcohol for 2 to 3 seconds, put the rats in a sterile culture dish, take their brains, and place the brains in a sterile culture dish containing cold D-Hanks liquid, remove meninges and blood vessels, and isolate the cerebral cortex.
2) place the isolated tissues in a sterile culture dish containing a proper amount of 0.125% trypsin solution, cutting up the tissues into a size of about 0.5 mm*0.5 mm*0.5 mm, and place them for 5 minutes at room temperature.
3) transfer the tissue blocks to a 15 ml centrifugal tube, add a proper amount of DMEM-F12 culture medium containing 10% bovine serum to terminate digestion, blow gently with a bend suction pipe to obtain a single cell suspension.
4) filter the cells with a 400-mesh cell strainer.
5) perform centrifugation at 1000 rpm for 5 minutes, discard the supernatant, add a D-Hanks liquid to wash the cells, perform centrifugation at 1000 rpm for 5 minutes and discard the supernatant.
6) add a proper amount of DMEM-F12 culture medium containing 10% bovine serum, count the cells, according to a concentration of 1*10^5 cells/ml, inoculate cells in a 96-pore plate or a 24-pore plate, which applied with 10 μg/ml of polylysine as a basic layer, place the plate in a CO2 incubator and culture at 37 °C in a CO2 concentration of 5%.
7) 24 hours later, replace the culture medium with a DMEM-F12 culture medium containing 5 mg/L cytarabine and 10% bovine serum; 24 hours later, replace the culture medium with a DMEM-F12 culture medium containing 2% B-27 and 10% bovine serum; replace the culture medium with a DMEM-F12 culture medium containing 2% B-27 and 10% bovine serum every 2 days subsequently to change the solution.
A total of 8 experiment groups are set for cell survival rate detection, including a normal control group, a model group, 5 medicament groups of different concentrations (drug concentrations (the drug concentrations described herein refer to the dry weight of fucoxanthin): 0.39, 0.78, 1.56, 3.12 and 6.25 μg/ml) and a medicament control group (6.25 μg/ml). Other detection indexes: SOD, GSH-PX, T-AOC, MDA and cell morphological observation in which 5 experimental groups are set in total, including a normal control group, a model group and 3 medicament groups of different concentrations (drug concentrations: 0.39, 0.78 and 1.56 μg/ml).
Take cells cultured for 7 days, administer corresponding concentrations of the drug to the medicament groups, add an equal amount of a corresponding solvent to the control group and the model group, incubate for 16 hours, treat groups besides the control group with 5 μM of Aβ25-35 (pre-aged for 7 days at 37□) for 24 hours, take the cell culture medium to detect the T-AOC, the SOD, the MDA and the GSH-PX subsequently, and measure the cell survival rate by MTT method or perform morphological observation with a Hoechst/PI double staining experiment.
Determination of the cell survival rate by MTT method: culture the cells in a 96-pore plate, administer the drug to protect the cells for 16 hours, after damaging the cells by Aβ25-35 for 24 hours, add 5 mg/ml of MTT to the culture medium, continue to culture for 4 hours, terminate the culture, remove the culture medium through careful suction, add 200 μl of dimethyl sulfoxide to each pore, measure the absorbance of each pore at Optical Density (OD) 490 nm with an enzyme-labeled instrument after the crystals are completely dissolved and calculate the cell survival rate by taking the control group as 100%.

[5] = system: rat brain cortical neurons induced by Aβ25-35; assay: Neuron morphological detection by Hoechst/PI double staining; format: cell-based; conditions: compared with model group, FIG. 1
Description: The anti-AD activity of fucoxanthin is evaluated by detecting indexes including cell survival rate (MTT), cytomorphology, SOD, GSH-PX, T-AOC and MDA etc. SOD plays an important role in the balance between oxidation and anti-oxidization of organisms. The enzyme is able to remove superoxide anion free radicals and protect cells from damage, and the activity of the enzyme indirectly reflects the ability of organisms to remove ROS. GSH-PX, which is an important enzyme for catalyzing the decomposition of hydrogen peroxide in the body, is able to protect the integrity of cellular membrane structures and functions. The T-AOC can be measured to evaluate the antioxidant capacity of the total anti-oxidant substances in a system. The quantity of MDA reflects the degree of lipid peroxidation in organisms and may indirectly reflect the damage level of cells attacked by free radicals. Hoechst/Propidium Iodide (PI) double staining is applied to cell morphological observation: both PI and Hoechst33342 can bonde with cell nuclear Deoxyribonucleic Acid (DNA) (or Ribonucleic Acid (RNA)). However, PI fails to get through normal cellular membranes while Hoechst is a membrane-permeable fluorescent dye. Therefore, necrotic cells or cells whose cellular membranes are damaged during late apoptosis are stained red by PI while normal cells and cells in early apoptosis or mid-apoptosis are stained blue by Hoechst. However, nucleolus of apoptotic cell present a bright blue color due to concentration. Normal cells (blue), apoptotic cells (bright blue) and necrotic cells (red) can be distinguished according to different colors. However, the accompanying drawings in the specification are colorless, thus the colors are replaced by hollow rounds (blue), grey rounds (bright blue) and black rounds (red). […] Other detection indexes: […] […]

rat embryo neuron = conditions: literature 2001-335480A published in Japan; cited from earlier work
[6] = system: rat brain cortical neurons induced by Aβ25-35; assay: MDA content in culture medium of neurons damaged by Aβ25-35; format: cell-based
Description: Aβ25-35 and MTT, purchased from Sigma Company; T-AOC assay kit, MDA assay kit, GSH-PX assay kit and SOD assay kit, purchased from Nanjing Jiancheng Bioengineering Institute; and cell apoptosis fluorescent Hoechst33342/PI double staining reagent kit purchased from Nanjing KeyGEN Biotech Co., Ltd. […] Other detection indexes: […] Three experiments of different samples were repeated to detect each index of this experiment (except the Hoechst/PI double staining experiment and the experiment of cell morphological observation), and all results are obtained via the results of three experiments by using statistical analysis. ROS is generated by organisms through the enzyme system and the non-enzyme system and the ROS is able to attack polyunsaturated fatty acids in biological membranes, and initiate lipid peroxidation to form lipid peroxides, such as MDA. Therefore, the amount of MDA can reflect the degree of lipid peroxidation in organisms, thereby indirectly reflecting the damage degree of cells attacked by free radicals. […] The Fx-powder can reduce the MDA content in the culture medium of the damaged neurons remarkably and is dose-dependent, and the protective effect of the Fx-powder increases with the increase of drug concentrations. The Fx-oil also has such effect to protect neurons from oxidative damage and is not evidently dose-dependent. The reference substance A presents certain protective effect at a low dose, but the effect is seemingly reversed at medium and high doses, along with an increase in the MDA content. However, there is no statistical difference compared with the model group.

[7] = system: rat brain cortical neurons induced by Aβ25-35; assay: SOD activity in culture medium of neurons damaged by Aβ25-35; format: cell-based
Description: Aβ25-35 and MTT, purchased from Sigma Company; T-AOC assay kit, MDA assay kit, GSH-PX assay kit and SOD assay kit, purchased from Nanjing Jiancheng Bioengineering Institute; and cell apoptosis fluorescent Hoechst33342/PI double staining reagent kit purchased from Nanjing KeyGEN Biotech Co., Ltd. […] Other detection indexes: […] Three experiments of different samples were repeated to detect each index of this experiment (except the Hoechst/PI double staining experiment and the experiment of cell morphological observation), and all results are obtained via the results of three experiments by using statistical analysis. The SOD activity can reflect ability of organisms to remove ROS indirectly. The influence of the reference substance A (A) and the coarse extracts thereof FX-01 powder (Fx-powder) and Fx-01 oil (Fx-oil) on the SOD activity in the culture medium of the rat brain cortical neuron model induced by Aβ25-35 is detected and the result is as shown in Table 2. […] The SOD activity is improved with the increase of drug concentrations.

[8] = system: rat brain cortical neurons induced by Aβ25-35; assay: GSH-PX activity in culture medium of neurons damaged by Aβ25-35; format: cell-based
Description: Aβ25-35 and MTT, purchased from Sigma Company; T-AOC assay kit, MDA assay kit, GSH-PX assay kit and SOD assay kit, purchased from Nanjing Jiancheng Bioengineering Institute; and cell apoptosis fluorescent Hoechst33342/PI double staining reagent kit purchased from Nanjing KeyGEN Biotech Co., Ltd. […] Other detection indexes: […] Three experiments of different samples were repeated to detect each index of this experiment (except the Hoechst/PI double staining experiment and the experiment of cell morphological observation), and all results are obtained via the results of three experiments by using statistical analysis. Detect the influence of the reference substance A (A) and the coarse extracts thereof FX-01 powder (Fx-powder) and Fx-01 oil (Fx-oil) on the GSH-PX activity in the culture medium of the rat brain cortical neuron model induced by Aβ25-35, and the result is as shown in Table 3.

For CC(=O)O[C@H]1CC(C)(C)C(=C=C/C(C)=C/C=C/C(C)=C/C=C/C=C(C)/C=C/C=C(\C)C(=O)C[C@@]23O[C@]2(C)C[C@@H](O)CC3(C)C)[C@](C)(O)C1 [A, fucoxanthin], which “Error response rate (%)” value [1] is on record?
The value was 50** %.

And the “Latency (seconds) Training” value [1]?
Its value is 40.2 ± 6.5 s.

What about the “Latency (seconds) Test” value ([1]; test 24 h later) of the same compound?
The value was 240.4 ± 43.2 s.

And the “Number of errors Test” value ([1]; within 5 minutes)?
Its value is 0.4 ± 0.3.

And the “T-AOC (U/ml)” value ([2]; 0.39 μg/ml)?
Its value is 1.50 ± 0.54 U/ml.

What about the “T-AOC (U/ml)” value ([2]; 0.78 μg/ml) of the same compound?
The value was 1.26 ± 0.37 U/ml.

And the “T-AOC (U/ml)” value ([2]; 1.56 μg/ml)?
Its value is 1.12 ± 0.13 U/ml.

What about the “Error response rate (%) Training” value [3] of the same compound?
The value was 100%.

What about the “Error response rate (%) Test” value ([3]; retest 24 h later) of the same compound?
Its value is 50%.

What about the “Latency Test” value ([3]; retest 24 h later) of the same compound?
Its value is 136.2 ± 25.6 s.

What about the “Number of errors Test” value ([3]; retest 24 h later, within 3 minutes) of the same compound?
The value was 0.3 ± 0.31.

And the “Number of errors Training” value ([3]; within 5 minutes)?
The value was 1.1 ± 0.56.

What about the “Cell survival rate (%)” value ([4]; 0.39 μg/ml, drug 16 h then 5 μM Aβ25-35 24 h) of the same compound?
Its value is 98.45 ± 15.89 %.

What about the “Cell survival rate (%)” value ([4]; 0.78 μg/ml, drug 16 h then 5 μM Aβ25-35 24 h) of the same compound?
The value was 92.36 ± 17.79%.

What about the “Cell survival rate (%)” value ([4]; 1.56 μg/ml, drug 16 h then 5 μM Aβ25-35 24 h) of the same compound?
Its value is 98.99 ± 9.52 %.

And the “Cell survival rate (%)” value ([4]; 3.12 μg/ml, drug 16 h then 5 μM Aβ25-35 24 h)?
The value was 100.98 ± 8.74 %.

And the “Cell survival rate (%)” value ([4]; 6.25 μg/ml, drug 16 h then 5 μM Aβ25-35 24 h)?
Its value is 103.31 ± 11.93 %.

What about the “Cell survival rate (%)” value ([4]; medicament control group (6.25 μg/ml)) of the same compound?
The value was 104.47 ± 20.70%.

And the “Morphological detection: apoptotic and necrotic cells” value (from here on “Morphological detection”) ([5]; 0.39 μg/ml)?
Its value is “slight decrease in the necrotic cells”.

What about the “Morphological detection” value ([5]; 0.78 μg/ml) of the same compound?
Its value is “The apoptotic cells and the necrotic cells decrease”.

And the “Morphological detection” value ([5]; 1.56 μg/ml)?
Its value is “The apoptotic cells and the necrotic cells decrease”.

What about the “Effect on rat embryo neuron injuries caused by cerebral ischemia-reperfusion” value (rat embryo neuron) of the same compound?
The value was “can inhibit rat embryo neuron injuries caused by cerebral ischemia-reperfusion”.

What about the “MDA” value ([6]; 0.39 μg/ml) of the same compound?
The value was 5.12 ± 1.17 µmol/mL.

And the “MDA” value ([6]; 0.78 μg/ml)?
The value was 14.62 ± 3.82 µmol/mL.

And the “MDA” value ([6]; 1.56 μg/ml)?
The value was 12.34 ± 1.58 µmol/mL.

What about the “SOD (U/ml)” value ([7]; 0.39 μg/ml) of the same compound?
The value was 15.38 ± 0.71 U/ml.

What about the “SOD (U/ml)” value ([7]; 0.78 μg/ml) of the same compound?
Its value is 15.72 ± 0.87 U/ml.

What about the “SOD (U/ml)” value ([7]; 1.56 μg/ml) of the same compound?
Its value is 15.77 ± 0.83 U/ml.

And the “GSH-PX (U/ml)” value ([8]; 0.39 μg/ml)?
The value was 38.17 ± 6.84 U/ml.

And the “GSH-PX (U/ml)” value ([8]; 0.78 μg/ml)?
The value was 61.50 ± 51.62 U/ml.

And the “GSH-PX (U/ml)” value ([8]; 1.56 μg/ml)?
Its value is 34.00 ± 5.29 U/ml.
